pEC50: −log10 of the molar value. Values joined by “and” are separate entries in the source; they are usually repeats but may differ in a detail not shown here. Identical values can stand only once.
Key:
QR2 expressed in HEK293T = molecular target: T1, QR2 expressed in HEK293T (Homo sapiens, UniProt P16083); experiment: Cellular thermal shift assay (CETSA; Tagg curves and ITDRF); assay type: cell-based; details: 73°C; for pEC50: n = 3, read-out: EC50, isothermal dose-response of QR2 stabilization; for QR2 stabilization signal, ITDRF (replicates): log[Inhibitor]
T1 construct: endogenous in cells; host or cells: HEK293T
T1 sequence (P16083 1-231): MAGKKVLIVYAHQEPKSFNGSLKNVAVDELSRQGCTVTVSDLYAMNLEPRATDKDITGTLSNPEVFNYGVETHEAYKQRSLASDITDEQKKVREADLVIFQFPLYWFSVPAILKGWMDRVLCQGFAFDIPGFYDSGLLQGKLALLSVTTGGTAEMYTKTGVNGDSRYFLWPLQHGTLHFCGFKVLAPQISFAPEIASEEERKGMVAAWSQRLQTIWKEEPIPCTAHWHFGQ
Procedure: (§1) To establish direct target engagement and cell membrane permeability, a cellular thermal shift assay (CETSA) was carried out, using leading QR2is YB’s-537, 800, and 808. Following a 1 hour preincubation with 5 μM of the QR2is or vehicle, thermal aggregation curves (Taggs) of QR2 expressed in HEK293T were measured in increasing temperatures. All QR2is increased QR2 thermal stability compared with vehicle (Supplemental Figure 2A). Based on the Tagg curves we selected 73°C for isothermal dose-response fingerprint (IDTRF) experiments (Supplemental Figure 2B). The ITDRF allowed the relative quantification of the binding of each of the QR2is to QR2, measured as the EC50 (Figure 3A). […] We evaluated the safety of the QR2is using cell toxicity and viability assays. […] Cell viability was assessed by XTT assay in HEK239T cells, using a dose response, with 3- or 24-hour incubations of the leading QR2is. No sign of toxicity was seen (Figure 3C). Next, we wanted to assess if, similar to QR2 KO, QR2is can reduce cellular ROS in HCT116 cells and see whether any observable effect is occluded in QR2Δ cells. […] We then assessed WT HCT116 cells by immunoblot (Supplemental Figure 2, C and D), after being treated with YB-800 (2 μM) for 4 consecutive days.
(§2) H2DCFDA ROS assay was carried out according to established protocols, with some adjustment (Supplemental Methods) ([6]). Cell toxicity was measured via ATP depletion (CellTiter Glo, Promega) in THLE-2 cells (ATCC, CRL-2706), following 72 hours of exposure to the test compounds, and cell viability was assessed using XTT assay (Biological Industries) according to manufacturers protocols. CETSA was performed as previously described ([53]) with some modifications, using QR2 (Santa Cruz, sc-271665) and SOD1 (Santa Cruz, sc-17767) antibodies. SDS-PAGE and immunoblot imaging were carried out as previously described ([55]), using Tubulin (Sigma-Aldrich, SAB4500087), QR2 (Santa Cruz, sc-271665), NDUFA9 (AbCam, ab14713) and CD73 (Cell Signaling Technology, D7F9A) antibodies. […]
(§3) HEK293FT cells were cultured with penicillin- streptomycin antibiotics in Invitrogen DMEM (Thermo
(§4) Fisher Scientific) with 10% fetal bovine serum a nd L -glutamine, and grown to 80-90% confluence in 100
mm plates, while being passaged every 2–3 d. […]
Cellular The rm a l Shift Assay (CETSA)
The CETSA assay was performed as described(54) with some modifications. Bri efl y, HEK293T cel ls wer e
trypsinized (Biological Indust ri es), washed in PBS (Sigma-Aldrich) and then suspended in PBS containing
protease inhibitor cocktail (Roche). The suspended cells were then divided into two Eppendorf tubes and
were treated with either compound or DMSO (Sigma-Aldrich) for 1h at 37 °C with shaking. Following
treatment, each sample was divided into PCR tubes (100µL/tube) and subjected to a temperature gradient
(ranging fr om 63 to 80 °C) for 3 minutes. Cell lysates we r e obtained by 3- cycles of freeze- t ha w using li qui d
nitrogen and a thermal bl ock set to 25 °C. Samples were then centrifuged at 15,000rpm at 4 °C f or 20min a nd
were subsequently analyzed by Western Blot of QR2 (1:100, Santa Cruz; sc-271665). The isothermal
concentration response fingerprint (ITDRF) experiments were done using a constant temperature of 73 °C.
Band intensities were normalized to the highest concentration and SOD1 levels (1:200, Santa Cruz; sc -
(§5) 17767). Analysis of the results wer e done in accordance to Jafari et a l .( 63) us i ng GraphPad Pr i sm software.

HEK293 cells = experiment: XTT cell viability assay; assay type: cell-based; details: in % (unit assumed)
Procedure: as §1, §2, §3, §4
mm plates, while being passaged every 2–3 d. For the XTT assay (Biological Industries), cells were then
collected, centrifuged, and resuspended in fresh Minimum Essential Medium, and seeded at 50,000
cells/well in 96-well, poly- L-lysine-coated Nunc black, clear flat-bottomed plates (Thermo Fisher
Scientific). The next day, the cells were treated with increasing doses of QR2 inhibitors or vehicle f or 3 h,
and the XTT assay was then carried out as per the manufacturer’s instructions.
Cellular The rm a l Shift Assay (CETSA) […]
as §5

pEC50 (QR2 expressed in HEK293T)	QR2 stabilization signal, ITDRF (replicates) (QR2 expressed in HEK293T; M -5)	QR2 stabilization signal, ITDRF (replicates) (QR2 expressed in HEK293T; M -5.6)	QR2 stabilization signal, ITDRF (replicates) (QR2 expressed in HEK293T; M -5.9)	QR2 stabilization signal, ITDRF (replicates) (QR2 expressed in HEK293T; M -6.2)	QR2 stabilization signal, ITDRF (replicates) (QR2 expressed in HEK293T; M -6.5)	QR2 stabilization signal, ITDRF (replicates) (QR2 expressed in HEK293T; M -6.8)	QR2 stabilization signal, ITDRF (replicates) (QR2 expressed in HEK293T; M -7.1)	QR2 stabilization signal, ITDRF (replicates) (QR2 expressed in HEK293T; M -7.4)	QR2 stabilization signal, ITDRF (replicates) (QR2 expressed in HEK293T; M -7.7)	QR2 stabilization signal, ITDRF (replicates) (QR2 expressed in HEK293T; M -8)	QR2 stabilization signal, ITDRF (replicates) (QR2 expressed in HEK293T; M -9)	Structure (SMILES)	cell viability, XTT (replicates) (HEK293 cells; 3h, inhibitor 2e-8 M)	cell viability, XTT (replicates) (HEK293 cells; 3h, inhibitor 2e-7 M)	cell viability, XTT (replicates) (HEK293 cells; 3h, inhibitor 2e-6 M)	cell viability, XTT (replicates) (HEK293 cells; 3h, inhibitor 2e-5 M)	cell viability, XTT (replicates) (HEK293 cells; 24h, inhibitor 2e-8 M)	cell viability, XTT (replicates) (HEK293 cells; 24h, inhibitor 2e-7 M)	cell viability, XTT (replicates) (HEK293 cells; 24h, inhibitor 2e-6 M)	cell viability, XTT (replicates) (HEK293 cells; 24h, inhibitor 2e-5 M)
7.47	4070 and 3736	4506 and 4561 and 4867	4786 and 3969 and 5175	5056 and 3732 and 5224	4815 and 4201 and 4200	4651 and 3683 and 3564	3508 and 2203 and 2700	2230 and 1871 and 2017	1054 and 942 and 1103	655 and 480 and 469	36 and 24 and 14	Cc1ccc(-c2cn3cccc(C)c3n2)cc1S(=O)(=O)N1CCC(C)CC1 [YB-800]	110.8 and 103.7 and 108.0 and 102.4	102.8 and 101.2 and 105.3 and 105.6	102.2 and 105.1 and 102.6 and 106.5	89.7 and 90.4 and 98.2 and 92.7	107.0 and 100.8 and 108.4	107.9 and 100.0 and 108.0	108.3 and 101.8 and 109.9	104.0 and 96.6 and 104.9
7.89	11691 and 8388 and 13855	12608 and 8899 and 18621	7977 and 16388	13431 and 8528 and 16152	13807 and 8233 and 15986	13304 and 17220	11995 and 8077 and 17779	9109 and 4692 and 13840	6837 and 3416 and 9444	2555 and 1788 and 4021	121 and 492 and 263	Cc1ccc(-c2cn3cccc(C)c3n2)cc1S(=O)(=O)N1CCCC1 [YB-808]	99.9 and 101.4 and 100.9 and 104.5	95.8 and 94.0 and 100.4 and 100.6	96.9 and 89.9 and 98.4 and 94.4	97.3 and 87.1 and 95.7 and 85.1	106.1 and 99.4 and 100.6	106.1 and 98.5 and 96.2	103.5 and 93.6 and 93.8	95.3 and 93.6 and 96.9

Structure (SMILES)	pEC50 (QR2 expressed in HEK293T)	QR2 stabilization signal, ITDRF (replicates) (QR2 expressed in HEK293T; M -5)	QR2 stabilization signal, ITDRF (replicates) (QR2 expressed in HEK293T; M -5.6)	QR2 stabilization signal, ITDRF (replicates) (QR2 expressed in HEK293T; M -5.9)	QR2 stabilization signal, ITDRF (replicates) (QR2 expressed in HEK293T; M -6.2)	QR2 stabilization signal, ITDRF (replicates) (QR2 expressed in HEK293T; M -6.5)	QR2 stabilization signal, ITDRF (replicates) (QR2 expressed in HEK293T; M -6.8)	QR2 stabilization signal, ITDRF (replicates) (QR2 expressed in HEK293T; M -7.1)	QR2 stabilization signal, ITDRF (replicates) (QR2 expressed in HEK293T; M -7.4)	QR2 stabilization signal, ITDRF (replicates) (QR2 expressed in HEK293T; M -7.7)	QR2 stabilization signal, ITDRF (replicates) (QR2 expressed in HEK293T; M -8)	QR2 stabilization signal, ITDRF (replicates) (QR2 expressed in HEK293T; M -9)	cell viability, XTT (replicates) (HEK293 cells; 3h, inhibitor 2e-8 M)	cell viability, XTT (replicates) (HEK293 cells; 3h, inhibitor 2e-7 M)	cell viability, XTT (replicates) (HEK293 cells; 3h, inhibitor 2e-6 M)	cell viability, XTT (replicates) (HEK293 cells; 3h, inhibitor 2e-5 M)	cell viability, XTT (replicates) (HEK293 cells; 24h, inhibitor 2e-8 M)	cell viability, XTT (replicates) (HEK293 cells; 24h, inhibitor 2e-7 M)	cell viability, XTT (replicates) (HEK293 cells; 24h, inhibitor 2e-6 M)	cell viability, XTT (replicates) (HEK293 cells; 24h, inhibitor 2e-5 M)
Cc1ccc(-c2cn3cccc(C)c3n2)cc1S(=O)(=O)N1CCNCC1 [YB-537]	6.89	8037 and 7667	10469 and 7617 and 6857	10266 and 7463 and 6486	8878 and 6878 and 4582	6804 and 5633	3383 and 3296 and 2262	1653 and 1901 and 1028	762 and 749 and 458	410 and 416	212 and 226 and 182	110 and 98 and 105	94.7 and 105.7 and 95.0 and 97.1	97.9 and 102.5 and 95.0 and 99.0	99.1 and 104.8 and 106.5 and 98.8	94.7 and 101.0 and 104.9 and 96.7	105.3 and 102.1 and 104.1	107.4 and 101.8 and 105.2	109.0 and 101.0 and 104.0	106.0 and 97.3 and 109.2

— publication PMC10541198, “Specific quinone reductase 2 inhibitors reduce metabolic burden and reverse Alzheimer’s disease phenotype in mice” (The Journal of Clinical Investigation, 2023)
